According to patent publication US20240269298A1, “PHOSPHONYL DERIVATIVE, AND COMPOSITION AND PHARMACEUTICAL APPLICATION THEREOF” (XIZANG HAISCO PHARMACEUTICAL CO., LTD., priority 2021, published 2024):
pIC50: −log10 of the molar value. Where two headings read alike, the source gives them in different places.

How the values were obtained:
[1] = tested on: NCI-H1975 EGFR-L858R-T790M-C797S cells; test: Inhibitory activity on proliferation of NCI-H1975 EGFR-L858R-T790M-C797S cells (CellTiter-Glo, 72 h); format: cell-based; conditions: Homo sapiens
Description: NCI-H1975 EGFR-L858R-T790M-C797S cells were cultured in an incubator at 37° C. with 5% CO2, and the culture medium was RPMI1640+10% FBS+100 μg/mL hygromycin. The cells in the logarithmic phase were collected, and the cell suspension was adjusted to an appropriate concentration with a hygromycin-free culture medium, and then plated on a 96-well plate at a density of 1500 cells/well and a volume of 90 μL. 10 μL of the compounds at different concentrations were added, and a vehicle control group (cells plus DMSO) was provided, wherein the concentration of DMSO was 0.1%. The cell culture plate was cultured in an incubator at 37° C. with 5% CO2 for 72 hours. After the incubation was completed, according to operation instructions for a CellTiter-Glo kit (Promega, G7572), 50 μL of CTG solution, which was already pre-melted and equilibrated to room temperature, was added to each well, and the mixtures were uniformly mixed for 2 min using a microplate shaker. The plate was placed at room temperature for 10 min, and then […] signal values were measured using a microplate reader (Envision 2104). […] was processed based on formula (2), and using the GraphPad Prism 5.0 software and nonlinear regression model, S-shaped dose-survival curves were plotted, and IC50 values were calculated. wherein Vsample was the readout of the drug-treated group, and Vvehicle control was the readout of the control group.

A431 (EGFR-WT) cells = test: Inhibitory activity on proliferation of A431 (EGFR-WT) cells (CTG, 72 h); format: cell-based; conditions: Homo sapiens, A-431
How it was run: (§1)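 Cells plated at 1000/well (NCI-H1975, RPMI1640+10% FBS) or 3000/well (A431, DMEM+10% FBS), dosed next day with compounds (0.1% DMSO final) for 72 h at 37 °C, 5% CO2. Viability by CTG luminescence, normalised to vehicle control; IC50 from nonlinear-regression dose-survival curves.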

[2] = tested on: NCI-H1975 (EGFR-L858R-T790M) cells; test: Inhibitory activity on proliferation of NCI-H1975 (EGFR-L858R-T790M) cells (CTG, 72 h); format: cell-based; conditions: Homo sapiens
How it was run: as §1

[3] = Pharmacokinetic test in mice; format: in vivo; conditions: male, ICR, mouse, po, administration i.g. (10 mg/kg), plasma
Description: Test objective: In this experiment, a single dose of test compounds was administered to ICR mice intravenously and intragastrically, the concentrations of the test compounds in plasma of mice were measured, and the pharmacokinetic characteristics and bioavailability of the test compounds in mice were evaluated.
Experimental animals: male ICR mice, 20-25 g, purchased from BEIJING HFK BIOSCIENCE CO., LTD. with the laboratory animal production license number of SCXK (JING) 2019-0008; or purchased from CHENGDU DDOSSY EXPERIMENTAL ANIMALS CO., LTD. (SCXK (CHUAN) 2020-030); or purchased from HUNAN SJA LABORATORY ANIMAL CO., LTD. (SCXK (XIANG) 2019-0004).
Experimental method: on the day of the experiment, ICR mice were randomly grouped according to their body weights. The mice were fasted with water available for 12 to 14 hours one day before the administration, and were fed 4 hours after the administration.
Sampling: before and after the administration, blood was taken from the orbits of the mice under isoflurane anesthesia, and placed in an EDTAK2 centrifuge tube. Centrifugation was carried out at 5000 rpm at 4° C. for 10 min, and the plasma was collected.
Time points for plasma collection in G1&G2 groups: 0, 5 min, 15 min, 30 min, 1h, 2h, 4h, 6h, 8h, and 24 h; • time points for plasma collection in G3 group: 0, 5 min, 15 min, 30 min, 1 h, 2 h, 4 h, 6h, 8h, and 24 h; • before analysis and detection, all samples were stored at −80° C. The samples were analyzed quantitatively by LC-MS/MS.

[4] = read-out: IC50 (value in brackets)

SMILES | pIC50 ([1]; read-out: IC50 (class symbol)) | pIC50 ([1]; read-out: IC50 (value)) | pIC50 (A431 (EGFR-WT) cells) | pIC50 ([2]; read-out: IC50 (class symbol)) | pIC50 [2, 4] | AUC [3] [ng·h/mL] | half-life [3] [h] | AUC(0-t) [3] [ng·h/mL]
COc1cc(N2CCC3(CCN(CC4CCN(c5ccc6c(c5)C(=O)N(C5CCC(=O)NC5=O)C6=O)CC4)CC3)CC2)c(-c2cnn(C)c2)cc1Nc1ncc(Cl)c(Nc2ccc3nccnc3c2P(C)(C)=O)n1 (stereo not drawn) [Compound 9, 5-(4-((9-(4-((5-chloro-4-((5-(dimethylphosphoryl)quinoxalin-6-yl)amino)pyrimidin-2-yl)amino)-5-methoxy-2-(1-methyl-1H-pyrazol-4-yl)phenyl)-3,9-diazaspiro[5.5]undecan-3-yl)methyl)piperidin-1-yl)-2-(2,6-dioxopiperidin-3-yl)isoindoline-1,3-dione] | > 6.70 | 7.41 |  | > 7.00 | 7.85 |  |  | 
COc1cc(N2CCC(N3CCN(C(=O)CNc4cccc5c4C(=O)N(C4CCC(=O)NC4=O)C5=O)CC3)CC2)ccc1Nc1ncc(Cl)c(Nc2ccccc2P(C)(C)=O)n1 (stereo not drawn) [Control compound B, reference compound] | 6.00 to 6.30 | 6.15 |  | 6.30 to 7.00 | 6.18 | 2090 | 1.23 | 
COc1cc(N2CCC(N3CCN(CC4CCN(c5ccc6c(c5)C(=O)N(C5CCC(=O)NC5=O)C6=O)C4)CC3)CC2)c(-c2cnn(C)c2)cc1Nc1ncc(Cl)c(Nc2ccc3nccnc3c2P(C)(C)=O)n1 (stereo not drawn) [Compound 6, 5-(3-((4-(1-(4-((5-chloro-4-((5-(dimethylphosphoryl)quinoxalin-6-yl)amino)pyrimidin-2-yl)amino)-5-methoxy-2-(1-methyl-1H-pyrazol-4-yl)phenyl)piperidin-4-yl)piperazin-1-yl)methyl)pyrrolidin-1-yl)-2-(2,6-dioxopiperidin-3-yl)isoindoline-1,3-dione] | > 6.70 | 7.57 | ≤ 5.00 | > 7.00 | 7.82 |  |  | 
COc1cc(N2CCC(N3CCN(CC4CCN(c5ccc6c(c5)C(=O)N(C5CCC(=O)NC5=O)C6=O)C4)CC3)CC2)c(-c2cnn(C)c2)cc1Nc1ncc(Br)c(Nc2ccc(-c3ccccc3)cc2P(C)(C)=O)n1 (stereo not drawn) [Compound 76, 5-(3-((4-(1-(4-((5-bromo-4-((3-(dimethylphosphoryl)-[1,1′-biphenyl]-4-yl)amino)pyrimidin-2-yl)amino)-5-methoxy-2-(1-methyl-1H-pyrazol-4-yl)phenyl)piperidin-4-yl)piperazin-1-yl)methyl)pyrrolidin-1-yl)-2-(2,6-dioxopiperidin-3-yl)isoindoline-1,3-dione] |  |  | ≤ 5.00 | > 7.00 | 7.51 |  |  | 19600
COc1cc(N2CCC(N3CCN(CC4CCN(c5ccc6c(c5)C(=O)N(C5CCC(=O)NC5=O)C6=O)CC4)CC3)CC2)c(-c2cnn(C)c2)cc1Nc1ncc(Br)c(Nc2ccc(C)c(C)c2P(C)(C)=O)n1 (stereo not drawn) [Compound 73, 5-(4-((4-(1-(4-((5-bromo-4-((2-(dimethylphosphoryl)-3,4-dimethylphenyl)amino)pyrimidin-2-yl)amino)-5-methoxy-2-(1-methyl-1H-pyrazol-4-yl)phenyl)piperidin-4-yl)piperazin-1-yl)methyl)piperidin-1-yl)-2-(2,6-dioxopiperidin-3-yl)isoindoline-1,3-dione] |  |  | ≤ 5.00 | > 7.00 | 7.59 |  |  | 13700
COc1cc(N2CCC(CN3CCC4(CC3)CCN(c3ccc5c(c3)C(=O)N(C3CCC(=O)NC3=O)C5=O)CC4)CC2)c(-c2cnn(C)c2)cc1Nc1ncc(Cl)c(Nc2ccc(-c3ccccc3)cc2P(C)(C)=O)n1 (stereo not drawn) [Compound 48, 5-(9-((1-(4-((5-chloro-4-((3-(dimethylphosphoryl)-[1,1′-biphenyl]-4-yl)amino)pyrimidin-2-yl)amino)-5-methoxy-2-(1-methyl-1H-pyrazol-4-yl)phenyl)piperidin-4-yl)methyl)-3,9-diazaspiro[5.5]undecan-3-yl)-2-(2,6-dioxopiperidin-3-yl)isoindoline-1,3-dione] |  |  | ≤ 5.00 | > 7.00 | 7.49 |  |  | 7790
COc1cc(N2CCN(c3ccc4c(c3)C(=O)N(C3CCC(=O)NC3=O)C4=O)CC2)c(-c2cnn(C)c2)cc1Nc1ncc(Cl)c(Nc2ccc(-c3ccccc3)cc2P(C)(C)=O)n1 (stereo not drawn) [Compound 98, 5-(4-(4-((5-chloro-4-((3-(dimethylphosphoryl)-[1,1′-biphenyl]-4-yl)amino)pyrimidin-2-yl)amino)-5-methoxy-2-(1-methyl-1H-pyrazol-4-yl)phenyl)piperazin-1-yl)-2-(2,6-dioxopiperidin-3-yl)isoindoline-1,3-dione] |  |  | ≤ 5.00 | 6.30 to 7.00 | 7.00 | 69800 | 10.9 | 

Results, then the molecule that gave them:

pIC50 ([1]; read-out: IC50 (class symbol)) | pIC50 ([1]; read-out: IC50 (value)) | pIC50 (A431 (EGFR-WT) cells) | pIC50 ([2]; read-out: IC50 (class symbol)) | pIC50 [2, 4] | AUC [3] [ng·h/mL] | half-life [3] [h] | AUC(0-t) [3] [ng·h/mL] | SMILES
> 6.70 | 7.52 | ≤ 5.00 | > 7.00 | 7.70 |  |  |  | COc1cc(N2CCC(N3CCN(C4CC5(CCN(c6ccc7c(c6)C(=O)N(C6CCC(=O)NC6=O)C7=O)CC5)C4)CC3)CC2)c(-c2cnn(C)c2)cc1Nc1ncc(Cl)c(Nc2ccc3nccnc3c2P(C)(C)=O)n1 (stereo not drawn) [Trifluoroacetate of compound 7, 5-(2-(4-(1-(4-((5-chloro-4-((5-(dimethylphosphoryl)quinoxalin-6-yl)amino)pyrimidin-2-yl)amino)-5-methoxy-2-(1-methyl-1H-pyrazol-4-yl)phenyl)piperidin-4-yl)piperazin-1-yl)-7-azaspiro[3.5]nonan-7-yl)-2-(2,6-dioxopiperidin-3-yl)isoindoline-1,3-dione]
 |  | ≤ 5.00 | > 7.00 | 7.22 |  |  | 3730 | COc1cc(N2CCC(CN3CCC4(CCCN(c5ccc6c(c5)C(=O)N(C5CCC(=O)NC5=O)C6=O)C4)CC3)CC2)c(-c2cnn(C)c2)cc1Nc1ncc(Br)c(Nc2ccc(-c3ccccc3)cc2P(C)(C)=O)n1 (stereo not drawn) [Compound 38, 5-(9-((1-(4-((5-bromo-4-((3-(dimethylphosphoryl)-[1,1′-biphenyl]-4-yl)amino)pyrimidin-2-yl)amino)-5-methoxy-2-(1-methyl-1H-pyrazol-4-yl)phenyl)piperidin-4-yl)methyl)-2,9-diazaspiro[5.5]undecan-2-yl)-2-(2,6-dioxopiperidin-3-yl)isoindoline-1,3-dione]
 | 5.86 |  | 6.30 to 7.00 | 6.26 | 563 | 1.54 |  | COc1cc(N2CCC(N3CCN(CCOCC#Cc4cccc5c4CN(C4CCC(=O)NC4=O)C5=O)CC3)CC2)ccc1Nc1ncc(Cl)c(Nc2ccccc2P(C)(C)=O)n1 (stereo not drawn) [Control compound A, reference compound]
> 6.70 | 7.62 | ≤ 5.00 | > 7.00 | 7.92 |  |  |  | COc1cc(N2CCC(N3CCN(CC4CCN(c5ccc6c(c5)C(=O)N(C5CCC(=O)NC5=O)C6=O)CC4)CC3)CC2)c(-c2cnn(C)c2)cc1Nc1ncc(Br)c(Nc2ccc3nccnc3c2P(C)(C)=O)n1 (stereo not drawn) [Compound 18, 5-(4-((4-(1-(4-((5-bromo-4-((5-(dimethylphosphoryl)quinoxalin-6-yl)amino)pyrimidin-2-yl)amino)-5-methoxy-2-(1-methyl-1H-pyrazol-4-yl)phenyl)piperidin-4-yl)piperazin-1-yl)methyl)piperidin-1-yl)-2-(2,6-dioxopiperidin-3-yl)isoindoline-1,3-dione]
